According to patent publication US20140066657A1, “DOSAGE REGIMEN FOR A S1P RECEPTOR AGONIST” (Novartis AG, priority 2008, published 2014):

Assays:
healthy subjects [1] = assay: Double-blind, placebo-controlled dose titration clinical study; heart rate by continuous telemetry and Holter; assay type: in vivo, human
Experimental: A single-center, double-blind, placebo-controlled, dose titration, once-daily, multiple-oral-dose clinical study in healthy subjects was conducted to evaluate the effect of a dosage regimen of FTY720 according to the present invention. A total of 36 subjects were randomly assigned to one of the three groups. Each subject participated in a screening period of maximal 21 days, a baseline period (Day −1), a 9-day dose-administration period, and clinical study completion assessments on Day 10. Subjects were assigned to one of the three groups (dose titration regimen group, placebo Control group, or active control group) and received the once daily dose in a double-blinded manner (Table 1). In the dose titration group, increasing once daily doses of Compound A (FTY720), starting at 0.125 mg o.d. and ending at the maximal therapeutic dose of 1.25 mg o.d. were administered on days 1 to 9 of the study according to the schedule shown in Table 1 below. The placebo control group received placebo through out the duration of the study and the active control group received a once daily dose of 1.25 mg of FTY720 on days 1 to 9. [table] On Day −1 (baseline), subjects will undergo baseline assessments including 24 hour holter monitoring and telemetry assessments. Pharmacodynamic and safety assessments are performed up to 24 hours post last dose. Heart rate is monitored via telemetry on Day −1 through Day 10, 24 hour after the last dosing. Heart rhythm is assessed via 24 hr continuous holter monitoring on Day −1, Day 1, and Day 9. For each dosing for each subject, the drug is administered as closely as practically possible to the time administered on Day −1. Safety assessments includes physical examinations, vital signs and body measurements, 12-lead ECG evaluations, standard clinical laboratory evaluations hematology, blood chemistry, urinalysis, adverse event and serious adverse event monitoring. Systolic and diastolic blood pressure and pulse are measured after the subject has rested quietly in the sitting position for at least 3 minutes. Blood pressure is measured at the same arm on each occasion. Standard 12-lead ECGs are recorded at Screening, baseline, 4 hours post-dose on Day 1 and Day 8, and at Study Completion. The variables recorded are: date and time of ECG, heart rate. PR interval, QT interval (uncorrected), QTcB, QRS duration. The overall interpretation is collected with a Yes/No statement to confirm if any clinically relevant abnormalities are present, which needs to be specified further. Subjects remain on continuous telemetry, starting before breakfast on Day −1 and proceeding throughout the administration period up to Day 10 (24 hour after the last dose). Over this ten day duration of continuous heart rate collection for each subject, one heart rate value is obtained every minute (‘minute unit heart rate’), representing the average heart rate value over that minute. The heart rate database for each subject contains approximately 14,400 data points (10 days×24 hr×60 min). 24-hour continuous Holter-ECG data are captured via a digital Holter monitor (12-lead, on Days −1, 1, 6, and 8), and transferred for interpretation and reporting. Hotter monitoring starts approximately at 7:00 and the time of dose administration is regarded as the time “0 hours'. Holter “cuts” are derived from the dataset at 1 hour intervals starting from Day −1 and continuing for 24 hours or the end of the cleaned Hotter monitoring dataset. Cardiac conduction intervals: arrhythmia monitoring includes the frequency and duration of sinus pauses (>2 sec and >3 sec) and atrio-ventricular blocks. Frequency and duration of atrial and ventricular ectopy and sinus rhythm are also recorded. The daily chronotropic effect is defined as the percent decrease in HRmin (minimum heart rate) between two consecutive days. It is calculated on days 1 to 9.

healthy subjects [2] = settings: administration of 1.25 mg; cited from earlier work
multiple sclerosis = settings: humans; Mehling et al. 2008, Kappos et al. 2006; cited from earlier work
[3] = FTY720 1.25 mg once daily treatment group (active control), oral, healthy subjects

CCCCCCCCc1ccc(CCC(N)(CO)CO)cc1.Cl [FTY720, 2-amino-2-[2-(4-octylphenyl)ethyl]propane-1,3-diol]
additional decrease in heart rate (daily average) from Day 1 to Day 2 (healthy subjects [1]; [3]): approximately 3 BPM
decrease in heart rate (daily average) from Day -1 to Day 1 (healthy subjects [1]; [3]): approximately 8 BPM
gradual decrease in heart rate per day (healthy subjects [1]; FTY720 titration group (0.125/0.25/0.5/1.25 mg o.d.), over the eight day course of the dose titration): 1-2 BPM per day
dip in heart rate on initiation of 1.25 mg compared to the preceding days (healthy subjects [1]; FTY720 titration group, initiation of 1.25 mg on Day 8): does not result in dip in heart rate
daily minimum heart rates during the course of the study (healthy subjects [1]; dose titration regimen compared with the FTY720 1.25 mg group): improved daily minimum heart rates
negative chronotropic effect seen on Day 1 of treatment initiation (healthy subjects [1]; dose titration regimen versus 1.25 mg o.d. from Day 1): attenuates the negative chronotropic effect
decrease in heart rate (healthy subjects [2]): approximately 8 beats/min (BPM)
efficacy in the treatment of multiple sclerosis (multiple sclerosis): has been demonstrated in humans
